Laboratory results taken from patent US10842152B2, “Isothiazolo-based bicycles, processes for their preparation and their use as herbicides and/or plant growth regulators” (Bayer CropScience Aktiengesellschaft, priority 2017, dated 2020).

Assays:
Alopecurus myosuroides = experiment: Herbicidal effect pre-emergence; assay type: in vivo; settings: 320 g/ha, visual grading after ca. 3 weeks vs untreated controls
From the text: (§1) Herbicidal activities of the compounds of the formulae (G1) or (G2) according to the invention were investigated against the following harmful plants: • ALOMY=Alopecurus myosuroides • ECHCG=Echinochloa crus-galli • SETVI=Setaria viridis • ABUTH=Abutilon theophrasti • AMARE=Amaranthus retroflexus • PHBPU=Pharbitis purpurea • POLCO=Polygonum convolvulus (=Fallopia convolvulus) • STEME=Stellaria media • VIOTR=Viola tricolor
(§2) Seeds of mono- and dicotyledonous weed plants and crop plants are sown in wood-fiber pots in sandy loam and covered with soil. The compounds according to the invention, formulated in the form of wettable powders (WP) or as emulsifiable concentrates (EC), are then applied to the surface of the covering soil as aqueous suspension or emulsion, with the addition of 0.5% of an additive, at an application rate of 600 l of water/ha (converted).
(§3) Following treatment, the pots are placed in a greenhouse and kept under optimum growth conditions for the test plants. The visual grading of the damage to the test plants is carried out after ca. 3 weeks in comparison to untreated controls (herbicidal effect in percent (%): 100% effect=plants have died off, 0% effect=as control plants).

Amaranthus retroflexus [1] = experiment: Herbicidal effect pre-emergence; assay type: in vivo; settings: 320 g/ha, visual grading after ca. 3 weeks vs untreated controls
From the text: as §1, §2, §3

Setaria viridis [2] = experiment: Herbicidal effect pre-emergence; assay type: in vivo; settings: 320 g/ha, visual grading after ca. 3 weeks vs untreated controls
From the text: as §1, §2, §3

Stellaria media [3] = experiment: Herbicidal effect pre-emergence; assay type: in vivo; settings: 320 g/ha, visual grading after ca. 3 weeks vs untreated controls
From the text: as §1, §2, §3

Viola tricolor [4] = experiment: Herbicidal effect pre-emergence; assay type: in vivo; settings: 320 g/ha, visual grading after ca. 3 weeks vs untreated controls
From the text: as §1, §2, §3

MATIN [5] = experiment: Herbicidal effect pre-emergence; assay type: in vivo, Matricaria inodora; settings: 320 g/ha, visual grading after ca. 3 weeks vs untreated controls
From the text: as §2, §3

Amaranthus retroflexus [6] = experiment: Herbicidal effect post-emergence; assay type: in vivo; settings: 320 g/ha
From the text: as §1
(§4) Seeds of mono- and dicotyledonous weed plants and crop plants are sown in wood-fiber pots in sandy loam, covered with soil and grown in a greenhouse under controlled growth conditions. 2 to 3 weeks after sowing, the test plants are sprayed in the single-leaf stage. The compounds according to the invention, formulated in form of wettable powders (WP) or as emulsifiable concentrates (EC), are then sprayed onto the green plant parts as aqueous suspension or emulsion, with the addition of 0.5% of an additive, at an application rate of 600 l of water/ha (converted). After the test plants had been in the greenhouse for ca. 3 weeks under optimum growth conditions, the effect of the preparations is assessed visually in comparison with untreated controls (herbicidal effect in percent (%): 100% effect=plants have died off, 0% effect=as control plants).

Pharbitis purpurea = experiment: Herbicidal effect post-emergence; assay type: in vivo; settings: 320 g/ha, visual grading after ca. 3 weeks (Table 7)
From the text: as §1, §4

[7] = tested on: Polygonum convolvulus (=Fallopia convolvulus); experiment: Herbicidal effect post-emergence; assay type: in vivo; settings: 320 g/ha, visual grading after ca. 3 weeks (Table 7)
From the text: as §1, §4

Setaria viridis [8] = experiment: Herbicidal effect post-emergence; assay type: in vivo; settings: 320 g/ha
From the text: as §1, §4

Stellaria media [9] = experiment: Herbicidal effect post-emergence; assay type: in vivo; settings: 320 g/ha, visual grading after ca. 3 weeks (Table 7)
From the text: as §1, §4

Viola tricolor [10] = experiment: Herbicidal effect post-emergence; assay type: in vivo; settings: 320 g/ha
From the text: as §1, §4

MATIN [11] = experiment: Herbicidal effect post-emergence; assay type: in vivo, Matricaria inodora; settings: 320 g/ha, visual grading after ca. 3 weeks (Table 7)
From the text: as §4

[12] = visual grading after ca. 3 weeks (Table 7)
[13] = visual grading after ca. 3 weeks (Table 9)

| SMILES | herbicidal effect ALOMY (Alopecurus myosuroides) | herbicidal effect AMARE (Amaranthus retroflexus [1]) | herbicidal effect SETVI (Setaria viridis [2]) | herbicidal effect STEME (Stellaria media [3]) | herbicidal effect VIOTR (Viola tricolor [4]) | herbicidal effect MATIN (MATIN [5]) | herbicidal effect AMARE (Amaranthus retroflexus [6]; [12]) | herbicidal effect PHBPU (Pharbitis purpurea) | herbicidal effect POLCO [7] | herbicidal effect SETVI (Setaria viridis [8]; [12]) | herbicidal effect STEME (Stellaria media [9]) | herbicidal effect VIOTR (Viola tricolor [10]; [12]) | herbicidal effect MATIN (MATIN [11]) | herbicidal effect AMARE (Amaranthus retroflexus [6]; [13]) | herbicidal effect SETVI (Setaria viridis [8]; [13]) | herbicidal effect VIOTR (Viola tricolor [10]; [13]) |
| --- | --- | --- | --- | --- | --- | --- | --- | --- | --- | --- | --- | --- | --- | --- | --- | --- |
| Nc1nsc2c(=O)n(CC3CCCCC3Cl)cc(Cl)c12 (racemic) [Example I-156] | 100% | 100% | 100% | 100% | 100% | 100% | 100% | 100% | 100% | 100% | 100% | 100% | 80% |  |  |  |
| O=C(Nc1nsc2c(=O)n(CC3CCCCC3Cl)cc(Cl)c12)C(F)F (racemic) [Example I-160] | 100% | 100% | 100% | 100% | 100% | 100% | 100% | 100% | 100% | 100% | 100% | 100% | 80% |  |  |  |
| O=C(Nc1nsc2c(=O)n(CC3CCCCC3Cl)cc(Cl)c12)C(F)(F)C(F)(F)F (racemic) [Example I-161] | 100% | 100% | 100% | 100% | 100% | 100% | 100% | 100% | 100% | 100% | 100% | 100% | 80% |  |  |  |
| O=C(Nc1nsc2c(=O)n(CC3CCCCC3Cl)cc(Cl)c12)C(F)(F)F (racemic) [Example I-171] | 100% | 100% | 100% | 100% | 100% | 100% | 100% | 100% | 100% | 100% | 100% | 100% | 90% |  |  |  |
| COCc1cc2c(N)nsc2c(=O)n1CC1CCCCC1 [Example I-028] | 90% | 90% | 100% | 100% | 100% | 90% |  |  |  |  |  |  |  |  |  |  |
| CCC(=O)Nc1nsc2c(=O)n(CC3CCCCC3)c(CC)cc12 [Example I-029] | 90% | 100% | 90% | 90% | 100% | 90% |  |  |  |  |  |  |  |  |  |  |
| O=C(Nc1nsc2c(=O)n(CC3CCCCC3)c(CO)cc12)C(F)(F)C(F)(F)F [Example I-047] | 80% | 100% | 90% | 100% | 100% | 90% |  |  |  |  |  |  |  | 90% | 90% | 100% |
| CCC(=O)Nc1nsc2c(=O)n(CC3CCCCC3)c(CO)cc12 [Example I-048] | 80% | 100% | 100% | 100% | 100% | 90% |  |  |  |  |  |  |  | 100% | 100% | 100% |
| Nc1nsc2c(=O)n(CC3CCCCC3)cc(Br)c12 [Example I-054, 3-amino-4-bromo-6-(cyclohexylmethyl)isothiazolo[5,4-c]pyridin-7-one] | 90% | 100% | 100% | 100% | 100% | 100% |  |  |  |  |  |  |  | 100% | 100% | 100% |
| O=C(Nc1nsc2c(=O)n(CC3CCCCC3)cc(Br)c12)C(F)(F)C(F)(F)F [Example I-077] | 100% | 100% | 100% | 100% | 100% | 90% |  |  |  |  |  |  |  | 100% | 90% | 90% |
| O=C(Nc1nsc2c(=O)n(CC3CCCCC3)cc(Cl)c12)C(F)(F)C(F)(F)F [Example I-081] | 100% | 100% | 100% | 100% | 100% | 100% |  |  |  |  |  |  |  | 100% | 100% | 100% |
| CCC(=O)N(C(=O)CC)c1nsc2c(=O)n(CC3CCCCC3)cc(Cl)c12 [Example I-082] |  | 100% | 100% |  | 100% |  |  |  |  |  |  |  |  | 100% | 100% | 100% |
| COCC(=O)Nc1nsc2c(=O)n(CC3CCCCC3)cc(Cl)c12 [Example I-085] |  | 100% | 100% |  | 100% |  |  |  |  |  |  |  |  | 100% | 100% | 100% |
| O=C(Nc1nsc2c(=O)n(CC3CCCCC3)cc(Cl)c12)C(F)(F)F [Example I-086] | 100% | 100% | 100% | 100% | 100% | 100% |  |  |  |  |  |  |  | 100% | 100% | 100% |
| O=C(Nc1nsc2c(=O)n(CC3CCCCC3)cc(Br)c12)C(F)(F)F [Example I-088] | 100% | 100% | 100% | 100% | 100% | 100% |  |  |  |  |  |  |  | 100% | 100% | 100% |
| COCC#Cc1cn(CC2CCCCC2)c(=O)c2snc(N)c12 [Example I-103] |  | 90% | 80% |  | 100% |  |  |  |  |  |  |  |  | 100% | 100% | 100% |
| C/C=C/c1cn(CC2CCCCC2)c(=O)c2snc(N)c12 [Example I-118] |  | 90% | 90% |  | 80% |  |  |  |  |  |  |  |  | 100% | 100% | 100% |
| N#Cc1cn(CC2CCCCC2)c(=O)c2snc(N)c12 [Example I-135] |  | 100% | 100% |  | 100% |  |  |  |  |  |  |  |  | 100% | 90% | 100% |
| CC(C)(C)OC(=O)OC1CN(CC2CCCCC2)C(=O)c2snc(N)c21 (stereo not shown) [Example I-138] | 100% | 100% | 100% | 100% | 100% | 90% |  |  |  |  |  |  |  | 100% | 80% | 100% |
